# Ends that are not written are not given here.
# Legend:
# catalase (CAT) protein = test: Western immunoblot of CAT protein in rat primary cortical cultures; type: cell-based; settings: Dose 28 pmol/ml, 5 hours at 37° C.
# Experimental: (§1) Tissue culture experiments were carried out using primary cultures of rat brain cortical cells as previously described above in Example 2. Primary cultures from embryonic rat brain isolated at E-21 (21 day embryos) and incubated for five hours with various doses: 1, 10, 100 ng/ml of CMX-99672. Cytoplasmic proteins were isolated and analyzed for upregulation of SOD and CAT by Western immunoblots as described above. […] The Western blot was scanned to quantify the fold-increase in SOD production in cell cultures treated with the CMX-99672 peptide compound.
# (§2) Representative peptide compounds were tested at various doses and compared for their ability to upregulate expression of genes for SOD and/or CAT in rat primary cortical cultures basically as described above. Cultures were incubated with a peptide compound for 5 hours at 37° C. Cytoplasmic protein fractions were prepared as described above. Cytoplasmic proteins were separated by gel electrophoresis and analyzed by Western immunoblots using antisera to SOD and CAT, respectively (Rockland, Inc., Gilbertsville, Pa.).
# [1] = system: superoxide dismutase-1 (SOD-1) mRNA; test: RT-PCR upregulation of SOD-1 mRNA in rat primary cortical cell cultures; type: cell-based; settings: 10 ng/ml, 3 hours
# Experimental: The RT-PCR method (see, for example, Innis et al., PCR Protocols: A Guide to Methods and Applications, (Academic Press, San Diego, 1990)) was used to investigate the upregulation of the specific mRNA that codes for the enzyme superoxide dismutase (SOD).
# (§3) Primary cortical cultures were obtained by growing newborn rat brain cortical cells in Delbecco's modified Eagle medium supplemented with 25 μg/ml of gentamycin and 10% fetal calf serum. The cells were isolated from the E-21 cortex of rat brain, plated at a density of 1×10^5 per ml and grown to confluence within four to five days in an atmosphere containing air and 5% CO2 at 37° C. as described in Cornell-Bell et al., Science, 247: 470-473 (1990) and Cell Calcium, 12: 185-204 (1991). Cultures were grown in 20 ml flasks as a monolayer and then exposed to various concentrations of peptides for studies of the effects of peptides on upregulation of genes for SOD and CAT and on the transmigration of transcription factor AP-1 to cell nuclei.
# Primary cultures of rat brain cortical cells were incubated with 100 ng/ml of peptide compound CMX-9236 for durations of 0 to 48 hours. mRNA was isolated from the cytoplasmic fraction of lysed cells according to standard methods (Angel et al., Cell 49:729-739, 1987). The RNA was incubated according to the RT-PCR protocol with two strands, 20 nucleotides long, one for the sense and one from the antisense strand. The sequences were selected to be unique for superoxide dismutase-1 (SOD-1), and to span one intron segment. […] The sequence of the two probe segments of the oligo dT segments for SOD are as follows: anti-sense strand, […] (SEQ ID NO:29), and sense strand, […] (SEQ ID NO:30). These span a sequence of 208 base pairs (bp) on the primary SOD sequence. The mixture was then treated with reverse transcriptase to obtain the cDNA according to standard PCR methods. The cDNA was then analyzed by electrophoresis and separated according to sequence lengths on a non-denaturing 5% polyacrylamide gel. The electrophoretically separated molecules were treated with ethidium bromide to stain double-stranded DNA fragments. These were visualized by ultraviolet illumination and photographed. The gels were then analyzed by a laser scanning fluorescence detector to quantitate the amount of messenger RNA for the extent of upregulation of SOD message and its time course of synthesis as a function of stimulation by CMX-9236. Similar methods of analysis were used for other peptides.
# [2] = system: superoxide dismutase (SOD) protein; test: Western immunoblot of SOD protein in rat brain primary cortical cultures; type: cell-based; settings: for SOD: 5 hours at 37° C.
# Experimental: as §3, with “nuclei. […]” for “nuclei.”
# as §1
# as §2, with “Pa.). […]” for “Pa.).”
# catalase (CAT) mRNA = test: RT-PCR upregulation of catalase (CAT) mRNA in primary rat cortical cultures; type: cell-based; settings: 10 ng/ml, 3 hours
# From the text: Peptide compounds of the invention may also upregulate mRNA for catalase (CAT). Experiments using the RT-PCR methods to detect upregulation of CAT mRNA in primary rat cortical brain cultures treated with various representative peptide compounds, i.e., CMX-9236, CMX-9963, and CMX-9967. The catalase probe duplex consisted of a sense primer having the sequence […] (SEQ ID NO:31) and antisense primer having the sequence […] (SEQ ID NO:32) flanking a 95 bp region of the CAT DNA.
# Primary rat brain cortical cell cultures were incubated with 100 ng/ml of the peptide compound CMX-9236 for 0, 0.5, 1, 2, 3, 6, 12, 24, and 48 hours. […] The upregulation of CAT mRNA was maximal at 3 hours after the addition of the peptide compound, and it decreased back to control levels at 48 hours. GAPDH was the internal standard in these experiments. […] A 13-fold increase in CAT mRNA levels was observed (over control) of CAT mRNA occurred when primary rat brain cortical cultures were incubated with 100 ng/ml of CMX-9236 for 3 hours.
# [3] = system: middle cerebral artery (MCA) permanent occlusion stroke model; test: Permanent MCA 24-hour occlusion stroke model; type: in vivo, Sprague-Dawley rats; settings: Dose 0.05 mg/hr
# [4] = system: transcription factor AP-1; test: Electrophoretic mobility shift assay (EMSA) for AP-1 activation in primary rat neurons / cortical cultures; type: cell-based
# Experimental: Nuclear extracts for electrophoretic mobility shift assays (EMSAs) were prepared as described previously (Adams et al., J. Leukocyte Biol., 62: 865-873 (1997)) using 1.0-2.0×10^7 cells per sample. All buffers were freshly supplemented with dithiothreitol (DTT, 0.5 mM), protease inhibitors: PMSF (0.5 mM), chymostatin, peptstatin-A, aprotinin, antipain, leupeptin (each at 1 μg/ml), and phosphatase inhibitors: NaF (10 mM), ZnCl2 (1 mM), sodium orthovanadate (1 mM), and sodium pyrophosphate (5 mM). Aliquots of the final dialyzates were stored at −80° C. and discarded after use.
# AP-1 transcription factor activation was assayed using an electrophoretic mobility shift assay (EMSA), as described by Adams et al., J. Leukoc. Biol., 62:865-873 (1997)). Cultures of primary rat neurons (Cornell-Bell et al., Cell Calcium, 12: 185-204 (1991)) were stimulated for 3 hours with various concentrations (0, 1, 10, 100 ng/ml) of peptide CMX-9236. Nuclear extracts prepared as described above were separated by gel electophoresis on non-denaturing gels and subjected to the EMSA procedure. This EMSA used an AP-1 synthetic duplex probe (Angel, P., 1987, Cell 49:729-739) having the sequence 5′-[…] (SEQ ID NO:33) and its antisense copy (complement strand), which were end-labeled with P^32 using polynucleotide kinase and (γ-P^32)-ATP. For the EMSA reaction, the labeled probe (0.5 pmol) was mixed with 3 μg of nuclear extract protein in a solution containing 10 mM Tris-HCl, pH 7.5, 50 mM NaCl, 1 mM EDTA, 1 mM dithiothreitol, 5% glycerol, 0.02% β-mercaptoethanol, and 1 μg of poly-dI/dC (Pharmacia). Reaction mixtures were incubated at 25° C. for 20 minutes to allow complete complex formation by the duplex with its appropriate AP-1 protein. The mixture was then electrophoresed under non-denaturing conditions through 4% polyacrylamide gels in 0.5×TBE buffer (45 mM Trisma base, 45 mM boric acid, 1 mM EDTA). The gels were dried on 3 mm paper. Bands were visualized by autoradiography at −80° C. with one intensifying screen and quantified by laser densitometry. The upregulation of AP-1 and the activation and upregulation process of AP-1 was compared to control cultures.
# Primary cortical cell cultures were grown to confluence and used in in vitro cultures for determining the effects of various representative peptide compounds on upregulation of AP-1. […] Extracts were prepared from the nuclei isolated from the primary culture homogenates, purified, and analyzed for the presence of specific transcription factors using the electrophoretic mobility shift assay (EMSA) method. The binding of ^32P-labeled duplex DNA probes specific for activator protein-1 (AP-1) or nuclear factor κB (NF-κB) was analyzed and quantified by autoradiography. After a 3-hour incubation of the cultures with 1 ng/ml of the peptide CMX-9236 there was a 15-fold increase of AP-1 relative to […] control cultures. […] Thus, a small peptide compound that is less than 20 amino acids long can simulate the properties of large growth factors such as NGF and BDNF, which exist as dimers of protein chains with molecular weights of 13,259 and 13,500, respectively.
# [5] = system: middle cerebral artery (MCA) permanent occlusion stroke model; test: Permanent MCA 24-hour occlusion stroke model; type: in vivo, Sprague-Dawley rats; settings: rat, in vivo
# Experimental: The in vivo neuroprotective effects of CMX-9236 were investigated in both temporary and permanent occlusion stroke models in Sprague-Dawley rats using an intraluminal suture of the middle cerebral artery (MCA) occlusion method (Zea Longa et al., Stroke, 20: 84 (1989)). Briefly, a 4-0 silicone-coated suture was inserted through the right common carotid artery to block the MCA orifice. In the temporary model, CMX-9236 (6.2 mg/kg/hr) or vehicle was administered via the femoral vein at 30 minutes after the start of a 2-hour occlusion for a 4-hour continuous infusion; the rats were then reperfused by withdrawing the suture at […] after the MCA occlusion. All experiments were performed in a blinded and randomized manner, and rectal temperature was maintained at 37° C. The animals were sacrificed, and their brains were removed, sectioned into six 2-mm-thick coronal slices and stained with 2,3,5-triphenyltetrazolium chloride solution (Bederson et al., Stroke, 17:1304 (1986)) to visualize the extent of brain damage for the calculation of the corrected hemispheric infarct volumes (Nagasawa and Kogure, Stroke, 20:1037 (1989); Li et al., J. Cereb. Blood Flow Metab., 17:1132 (1997)). […] This represents a significant reduction of infarct size (35±5%, p=0.01, student t-test) for the CMX-9236-treated group in the temporary occlusion model. There was also a 58+11% improvement in the neurological scoring (Minematsu et al., Neurology, 42:235 (1992)) for the peptide-treated group versus controls at the end of 24 hours.
# In the permanent occlusion stroke model, the blood flow to the MCA territory was blocked for the total 24-hour period. A continuous i.v. infusion (0.5 ml/hr) of the CMX-9236 peptide (2.04 mg/kg/hr) or vehicle was initiated at 30 minutes after occlusion for 6 hours, followed by a bolus i.v. infusion of CMX-9236 (4.0 mg/kg in 0.5 ml delivered over 10 minutes) or vehicle at 12 hours after occlusion. The corrected infarct volumes were 127.5±18 mm^3 versus 216±18 mm^3 for drug-treated animals and controls, respectively. This represents a significant decrease (41±5%, p=0.003, student t-test) in infarct size for the drug-treated group as compared to the vehicle-treated control group (n=10 per group) in the permanent model, indicating a substantial rescue of brain tissue. These findings indicate that CMX-9236 has neuroprotective properties post-trauma in vivo, reducing the brain damage generated by cerebral ischemia.
Substance,CAT (catalase (CAT) protein) [% Control],maximum increase of SOD-1 mRNA [1],SOD ([2]; Dose 28 pmol/ml) [% Control],fold-increase in SOD-1 protein (intensity of antibody binding) ([2]; cells treated 5 hours with 10 and 100 ng/ml) [fold],maximum increase of CAT mRNA (catalase (CAT) mRNA) [fold],Percent Neurological Rescue [3] [%],Percent Rescue (percent decrease in infarct size vs vehicle controls) [3] [%],SOD ([2]; Dose 6.7 pmol/ml) [% Control],activation / upregulation of AP-1 (in words) [4],neuroprotective effect in permanent MCA assay (in words) [5]
[Ac]-Asp Gly Asp [CMX-9967],200,6 fold,1220,≥ 20,6,40 ± 10,20 ± 6,–,–,–
[Ac]-Asp Gly Asp Gly Asp Phe Ala (Ac-DGDGDFA) [CMX-9963],700,around 10 fold,–,–,~7,–,–,1873,–,–
KKQYKLGSKTGPGQ [CMX-9901],–,–,–,–,–,–,–,–,upregulated AP-1,positive neuroprotective effect
"KKETLQFR [CMX-8933, described in U.S. Pat. No. 5,545,719]",–,–,–,–,–,–,–,–,upregulated AP-1,positive neuroprotective effect
